Reference: publication PMC3608422 (Xenobiotica; the fate of foreign compounds in biological …, 2011)
Where two headings read alike, the source gives them in different places.

Tests used:
mCB1Rs = mCB1Rs (Mus musculus, UniProt P47746); assay type: biochemical; details: for effect on basal G-protein activity ([35S]GTPγS binding): 10 µM
[1] = target: mouse brain CB1Rs (mCB1Rs) (Mus musculus, UniProt P47746); test: biochemical; assay type: binding; details: for Selectivity: mCB1 versus hCB2 binding; for hCB2/mCB1 (Ki ratio): ratio of Ki hCB2 to Ki mCB1
Chain of mouse brain CB1Rs (mCB1Rs) (P47746 whole entry): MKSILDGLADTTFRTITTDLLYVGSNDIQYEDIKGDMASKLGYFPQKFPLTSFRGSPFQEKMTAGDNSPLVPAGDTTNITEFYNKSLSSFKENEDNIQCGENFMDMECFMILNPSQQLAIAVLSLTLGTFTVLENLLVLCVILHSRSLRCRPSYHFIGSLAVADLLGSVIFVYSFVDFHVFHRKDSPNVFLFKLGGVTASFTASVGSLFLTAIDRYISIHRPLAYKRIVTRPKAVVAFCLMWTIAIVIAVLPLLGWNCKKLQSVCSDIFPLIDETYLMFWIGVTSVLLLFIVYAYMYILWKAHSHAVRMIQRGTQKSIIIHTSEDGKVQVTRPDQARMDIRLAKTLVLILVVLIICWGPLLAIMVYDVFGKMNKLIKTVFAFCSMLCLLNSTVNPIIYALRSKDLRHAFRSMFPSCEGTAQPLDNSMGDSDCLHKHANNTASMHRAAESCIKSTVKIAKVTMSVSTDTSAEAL

[2] = target: human CB2Rs (hCB2Rs) stably expressed in CHO cells (Homo sapiens, UniProt P34972); test: biochemical; assay type: binding
Chain of human CB2Rs (hCB2Rs) stably expressed in CHO cells (P34972 whole entry): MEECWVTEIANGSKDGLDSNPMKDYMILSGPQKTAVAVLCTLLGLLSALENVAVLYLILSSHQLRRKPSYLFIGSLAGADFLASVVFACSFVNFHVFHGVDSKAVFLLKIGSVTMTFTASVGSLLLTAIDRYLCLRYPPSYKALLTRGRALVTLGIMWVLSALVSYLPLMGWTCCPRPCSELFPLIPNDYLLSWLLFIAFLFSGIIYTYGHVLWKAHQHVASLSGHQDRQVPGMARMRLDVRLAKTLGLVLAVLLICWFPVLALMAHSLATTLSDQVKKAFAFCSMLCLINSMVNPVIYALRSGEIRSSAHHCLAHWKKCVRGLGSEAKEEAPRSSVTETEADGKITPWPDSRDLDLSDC

CB1Rs = details: read-out: affinity for CB1Rs; ref Mechoulam et al. 1995; cited from earlier work
CB2Rs = details: read-out: affinity for CB2Rs; ref Mechoulam et al. 1995; cited from earlier work
[3] = co-administration with 30 µM of the compound
[4] = co-administration with 10 µM of the compound

Chain of mCB1Rs (P47746 whole entry): as the sequence (P47746 whole entry) above

Row | SMILES | effect on basal G-protein activity ([35S]GTPγS binding) (mCB1Rs; mouse brain membranes) | Ki [1] [µM] | Selectivity [1] | hCB2/mCB1 (Ki ratio) [1] | Ki [2] [µM] | other results
1 | CC(C)C=Cc1c(O)cc(/C=C/c2ccc(O)cc2)cc1O [tA3, trans-4-(3-methyl-1-butenyl)-3,5,4′-trihydroxystilbene] | have little effect | 17.5 ± 3.4 | Non-selective | 0.6 | 11.3 ± 0.6 | ED50 of CB1R agonist CP-55,940 to activate G-proteins on co-administration (mCB1Rs; [3]): 0.127 µM; fold increase (shift-to-the-right) in ED50 of CP-55,940 (mCB1Rs; [3]): 30 fold
2 | CCCCC/C=C\C/C=C\C/C=C\C/C=C\CCCC(=O)OC(CO)CO [2-arachidonoylglycerol] |  |  |  |  |  | Ki (CB1Rs): ~0.5 µM; Ki (CB2Rs): ~1.5 µM
3 | CC1=CC[C@@H]2[C@@H](C1)c1c(O)cc(CC#CCCCNS(C)(=O)=O)cc1OC2(C)C [O-2050, reference compound] |  |  |  |  |  | effect on G-protein activity ([35S]GTPγS binding) (mCB1Rs; mouse brain membranes, 1 µM): produced no effect
4 | Oc1cc(O)cc(/C=C/c2ccc(O)c(O)c2)c1 [tPice, trans 3,5,3′,4′-tetrahydroxystilbene, reference compound] | markedly reduce | 11.7 ± 1 | CB1 | 9.7 | 114 ± 7.8 | 
5 | CC(C)C=Cc1c(O)cc(/C=C/c2ccc(O)c(O)c2)cc1O [tA1, trans-4-(3-methyl-1-butenyl)-3,5,3′,4′-tetrahydroxystilbene] | markedly reduce | 5.6 ± 0.4 | Non-selective | 2.3 | 12.6 ± 1.7 | concentration at which substrate inhibition is seen (UGT1A9): > 500 µM; ED50 of CB1R agonist CP-55,940 to activate G-proteins on co-administration (mCB1Rs; [4]): 0.028 µM; fold increase (shift-to-the-right) in ED50 of CP-55,940 (mCB1Rs; [4]): 7 fold; maximal response produced by CP-55,940 on co-administration (mCB1Rs; [4]): 0.22 ± 0.04 pmol/mg protein; attenuation by O-2050 of the reduction of basal G-protein activity (mCB1Rs; compound 10 µM co-incubated with neutral CB1R antagonist O-2050 1 µM): did not significantly attenuate; glucuronidation by UGT1A1 (UGT1A1): no visible glucuronidation
6 | Oc1ccc(/C=C/c2cc(O)cc(O)c2)cc1 [tRes, trans-3,5,4′-trihydroxystilbene, reference compound] |  | 14.3 ± 1.6 |  |  |  | 
